In patent US20110229531A1, “ANTI-PROTOZOA COMPOUNDS” (priority 2009, published 2011):

Test system: Acanthamoeba
Assay: Acanthamoeba growth inhibition, alamarBlue reduction
Assay type: cell-based, Acanthamoeba castellanii
From the text: Furthermore, inhibition was ablated in a dose dependent manner by the addition of histidine to the medium.

| Compound | effect of 3AT on growth in the presence of histidine (10 mM histidine added, 0.98 mM 3-AT, alamarBlue reduction) | IC20 (Acanthamoeba, read-out: IC20 of 3-AT) | IC50 (Acanthamoeba, absence of histidine, percentage of alamarBlue reduction) | concentration required to significantly (p<0.05) inhibit A. castellanii growth (in the presence of 1 mM Histidine) | growth of Acanthamoeba (medium without histidine, inhibition ablated dose dependently by added histidine) | concentration that significantly (p<0.05) inhibited A. castellanii growth (no histidine, compared with untreated control cultures, dose dependent) | toxicity of histidine to Acanthamoeba (100 mM histidine) |
| --- | --- | --- | --- | --- | --- | --- | --- |
| Nc1nc[nH]n1 [3-AT, 3-amino-1,2,4-triazole] | significantly (p<0.05) ablated the effect of 3AT | 980 µM | 15 to 31 µM | ≥ 0.06 mM | inhibits growth | ≥ 0.00095 mM | – |
| N[C@@H](Cc1c[nH]cn1)C(=O)O [histidine] | – | – | – | – | – | – | toxic |
